{"source": "patent US6355629B2", "about": "“Prodrugs with enhanced penetration into cells” (D-Pharm Ltd., priority 1993, dated 2002)", "key": {"[1]": {"system": "metrazol induced convulsions and death", "assay": "Metrazol anticonvulsant test (prevention of convulsions and/or death)", "type": "in vivo, mice", "settings": "for ED100: mice, one hour before s.c. metrazol (80 mg/kg), 30 minutes observation, TVA16 i.p.", "procedure": "A test sample of TVA16 was administered i.p. (0.01 to 100 mg/kg) to a group of three mice, one hour before an s.c. dose of metrazol (80 mg/kg). An effective dose was the amount which prevented convulsions (scored 2 points per animal) and/or death (scored 1 point per animal) in the subsequent 30 minutes."}, "[2]": {"system": "lymphocytes from donor blood and from the blood of an asthmatic patient", "assay": "Intracellular free [Ca2+]i by flow cytometry with fluo-3/AM", "type": "cell-based, human", "settings": "in either stimulated or untreated cells", "procedure": "Intracellular free [Ca^2+]i content was monitored by flow cytometry using the Ca^2+-sensitive dye fluo-3/AM (Molecular Probe Inc., OR)(Minta, Kao and Tsien, 1989, J. Biol. Chem. 264:8171-8178). Cells obtained from donor blood and those from the blood of an asthmatic patient were further washed twice in DMEM and resuspended to a concentration of 10^7 cells/ml. Fluo-3/AM (1 mM) was prepared in DMSO augmented with the nonionic surfactant Pluronic F-127 (Wyandotte Corp., Mich.). Aliquots of fluo-3/AM stock solution were added to cell suspensions in DMEM/HEPES at a final concentration of 3 μM (loading buffer). Loading was allowed to proceed for 30 min. at 37° C. and continued for 1 hour at 23° C. with gentle agitation. Cells were then adjusted to desired concentrations using fresh DMEM/HEPES, supplemented with 2% horse serum. Autofluorescence was eliminated by setting the threshold sensitivity above the levels obtained in absence of dye. Fluorescence intensity data was collected from 5000 single cells and values were expressed as arbitrary fluorescence units. Prodrug-1 (1 mM) was prepared in DMSO and added when appropriate at a final concentration of 3 μM to the cells for 5 min. prior to calcium treatment.\nLymphocytes from donor blood and from the blood of an asthmatic patient were exposed to prodrug-1. […]"}, "[3]": {"system": "rat model of permanent cerebral ischemia", "assay": "Bilateral permanent cerebral ischemia model (common carotid artery ligation)", "type": "in vivo", "settings": "rats, i.p. 0.001-0.1 mg/kg following artery ligation; p<0.01; FIG. 2", "procedure": "Bilateral ligation of the common carotid arteries is the simplest and most direct approach for inducing permanent partial ischemia. In the rats there is almost 64% mortality 24 h later. The causes of mortality are largely brain swelling (edema) and focal lesions (infarcts). Permanent partial global is achieved by isolation of the common carotid artery through an incision on the ventral surface of the neck. The salivary glands are moved laterally and the carotid sheath exposed. Both the vagus and sympathetic nerves are separated from the common carotid artery, which is then permanently ligated. Sprague-Dawley rats (250-300 g) were anesthetized with halothane or by intramuscular injection of 0.1 ml Ketamine (0.1 g/ml, Parke Davis UK) and 0.1 ml Rompun (2%, Bayer, FRG) per 300 g body weight. DP16 was administered intraperitoneally (i.p., 0.001-0.1 mg/kg) when appropriate following the artery ligation. Every experimental and control group included 14 male rats. Statistical analysis was performed according to t-test criteria."}, "[4]": {"system": "pilocarpine induced epileptic seizures", "assay": "Pilocarpine based model of experimental epilepsy", "type": "in vivo, rats", "procedure": "Acetylcholine, acetylcholinesterase inhibitors and acetylcholine analogues are effective epileptogenic agents when applied intracerebrally or systematically (see ref. in Leite et al., Neurosci. & Biobeh. Rev., 1990, 14:511-17). […] Systemic injections of the pilocarpine, a potent muscarinic cholinergic agonist, are capable of producing a sequence of behavioral alterations including stirring spells, facial automatisms and motor limbic seizures, that develop over 1-2 hours and build progressively into limbic status and following by general status epilepticus.\nImmediately following injection of pilocarpine, akinesia, ataxic lurching, facial automatism and […] dominated the animals' behavior. Further development of epileptic events is dose-dependent. Administration of pilocarpine in doses of 300-350 mg/kg causes appearance of limbic seizures with rearing, forelimb clonus, salivation, intense masticatory jaw movements and falling. Motor limbic seizures commenced after 20-30 min., recurred every 2-8 min and lead to status epilepticus. Increase of the dose of pilocarpine up-to 400mg/kg abolished limbic seizures and after 15-25 min of initial behavioral alterations causes fatal general tonic-clonic convulsions. We consider this dose as the LD100."}, "[5]": {"system": "metrazol induced seizures (myoclonic jerks)", "assay": "Metrazol minimal seizures test", "type": "in vivo, BALB/c mice", "settings": "30 min before Metrazol s.c.", "procedure": "Testing of DP16 as a possible antiepileptic drug was performed on 3-4 week old male BALB/c mice (18-27 g). Animals were maintained on an adequate diet and allowed free access to food and water except briefly during the experimental period. Animals were separately housed for one hour in transparent plastic cages before treatment and during the experimental period. Drugs were dissolved in normal saline with injection volume adjusted to 0.01 ml/g of body weight. DP16 was administered i.p., in doses ranging from 0.1 to 300 μg/kg: (0.1 μg/kg: n=10, 5 μg/kg: n=10, 25 μg/kg: n=20, 75 μg/kg: n=20, 150 μg/kg: n=20, and 300 μg/kg: n=10 animals respectively). Control animals received injections i.p. of normal saline. DP16 or saline administration followed in 30 minutes by Metrazol ([…], s.c.). […] Absence or relative delay of myoclonic jerks (MJ) in the experimental group was considered as indication of possible antiepileptic activity. Data were subjected to chi-square analysis with the computer statistic package “StatViewII”,"}, "rat hearts": {"system": "rat hearts", "assay": "Ex-vivo rat heart Low-flow-Reperfusion Langendorff model", "excerpt": "Low-flow Reperfusion Langendorff's heart (Meely and Rovetto, 1975, METHODS IN ENZYMOLOGY, v39:43-60) is an established ex vivo model of a human ischemic heart. A severe decrease in perfusion pressure (PP) below 20 mm Hg (low-flow period) causes sinus bradycardia culminating by stable AV block (“AVB”; 10 out of 11 hearts) frequently followed by ventricular arythmia. Restoration of perfusion pressure causes paroxysmal tachyarrhythmia followed by irreversable ventricular fibrillation (VF).\nThe experiments were preformed ex vivo on 39 rat hearts. Heart electrical activity and perfusion pressure were stable following 15 min., each. Perfusion buffer was supplemented with DP16 (1.0 μg/l) following the stable AV block during low flow perfusion and during the Reperfusion period.\nThe experimental protocol documented by FIG. 16 included periods of Normal Coronary Flow (FIG. 6, NF, panel 1) followed by Low-Flow (LF) and then by Normal flow-reperfusion (NF-Rp) (panels 2 and 3, respectively).\nThe experiments were performed by addition of DP16 (0.5-500 μg/l) to the perfusion buffer after AV block establishment."}, "[6]": {"system": "isoproterenol induced myocardial damage", "assay": "Isoproterenol induced myocardial damage", "type": "in vivo, Sprague-Dawley rats", "procedure": "Administration of the potent β-adrenoreceptor agonist isoproterenol (ISO) is commonly accepted model of experimental myocardial pathology. The cardioprotective effect of DP16 was tested on 82 Sprague-Dawley female rats weighing 250-350 g. Myocardial damage was induced in rats by two consecutive injections of ISO ([…], s.c.). When appropriate, the injections of ISO were followed in 30 and 180 minutes by DP16 (0.01 μg/kg, i.p.). The effect of DP16 was estimated by ECG analysis and determination of serum glutamate-oxaloacetate transaminase (SGOT) and lactatdehydrogenase (LDH) activity. Mortality of control rats after ISO intervention was 17.1±5.9% (7 out of 41). […] Pathological signs on ECG were aggravated during the experimental period. […] Administration of DP16 decreased mortality in 2 cases (2 out of 30). […] Pathological displacement of the ST-segment was found only on 28 and 40% of ECG (in 24 and in 48 hours following ISO respectively)."}, "[7]": {"system": "post-pilocarpine-seizure-cardiopathy (PSCP)", "assay": "Post-pilocarpine-seizure cardiopathy (PSCP) model, in vivo ECG", "set-up": "species or system Sprague-Dawley rats", "procedure": "(§1) Adult (2-3 months) male Sprague-Dawley rats were used for all experiments. They were fed with standard briquette chow with water ad libitum and were maintained in standard plastic cages (4-5 individuals in each cage) under natural illumination. A pilocarpine-scopolamine epileptic status model (pilocarpine) was performed as described earlier. In a group of 23 rats, pilocarpine was administered i.p. in different doses which ranged from 100 to 400 mg/kg body weight (B/W) for different periods of time; a second group of 17 rats was treated with DP16 prior to pilocarpine administration, wherein the DP16 was injected for 30 min before pilocarpine in the next dose range and its effect was investigated in the ensuing periods.\n(§2) In vivo ECG (Birtcher-Cardio-Tracer, model 375, USA) in three standard leads were recorded under ketamine anesthesia (3.3 mg/ky Imalgene 100, Rhone Merieux, France and 7 mg/kg Rompun, Bayer Leverkusen, Germany, i.m.). […] In the case of constant PP the volume of effluent flow was measured on electron balance (Precisa 1000C-3000D, Switzerland). […] Direct ECG were recorded from ventricular apex (lead 1), auriculum (lead 2) and in-between (lead 3). The coronary vessel's perfusion resistance (CVPR) was calculated in arbitrary units as follows: PP/flow/heart weight. […]"}, "[8]": {"system": "isolated hearts from pilocarpine-treated rats", "assay": "Perfusion-Hypoxia-Reperfusion isolated Langendorff heart from pilocarpine-treated rats", "set-up": "species or system Sprague-Dawley rats", "settings": "treatment prior to pilocarpine; initial and final periods of perfusion", "procedure": "as §1, §2"}}, "note": "Read-outs that look alike come from different tables or passages of the source."}
{"compound": "CCCCCCCCCCCCCCCC(=O)OCC(COP(=O)([O-])OCC[N+](C)(C)C)OC(=O)C(CCC)CCC", "note": "(stereo not drawn) [TVA16]", "values": [{"measurement": "dose response curve compared to valproic acid itself", "setting": "[1]; FIG. 8, doses as mg of valproic acid per kg body weight", "result": "improvement"}, {"measurement": "potency relative to sodium valproate", "setting": "[1]; from Table 1", "result": "more than 500 ×"}, {"measurement": "ED100", "setting": "[1]", "result": 20, "unit": "mg/kg"}]}
{"compound": "CCC1(c2ccccc2)CCC(=O)NC1=O", "note": "(stereo not drawn) [glutethimide]", "values": [{"measurement": "ED100", "setting": "[1]; Mus musculus, read-out: ED100", "result": 150, "unit": "mg/kg"}]}
{"compound": "CCC1(c2ccccc2)C(=O)NC(=O)NC1=O", "note": "[phenobarbital]", "values": [{"measurement": "ED100", "setting": "[1]; Mus musculus, read-out: ED100", "result": 50, "unit": "mg/kg"}]}
{"compound": "O=C(O)CN(CC(=O)O)c1ccccc1OCCOc1ccccc1N(CC(=O)O)CC(=O)O", "note": "[BAPTA, 1,2-bis-(2-aminophenoxy)ethane-N,N,N′,N′-tetraacetic acid]", "values": [{"measurement": "reducing the intracellular calcium levels", "setting": "[2]", "result": "ineffective"}]}
{"compound": "CN1C(=O)CN=C(c2ccccc2)c2cc(Cl)ccc21", "note": "[diazepam]", "values": [{"measurement": "ED100", "setting": "[1]; Mus musculus, read-out: ED100", "result": 2.5, "unit": "mg/kg"}]}
{"compound": "CCCC(C)(COC(N)=O)COC(N)=O", "note": "[meprobamate]", "values": [{"measurement": "ED100", "setting": "[1]; Mus musculus, read-out: ED100", "result": 200, "unit": "mg/kg"}]}
{"compound": "C[C@]12N[C@H](Cc3ccccc31)c1ccccc12", "note": "[MK-801]", "values": [{"measurement": "ED100", "setting": "[1]; Mus musculus, read-out: ED100", "result": 0.5, "unit": "mg/kg"}]}
{"compound": "CCCCCCCCCCCCCCCC(=O)OCC(COP(=O)([O-])OCC[N+](C)(C)C)OC(=O)CN(CC(=O)O)c1ccccc1OCCOc1ccccc1N(CC(=O)O)CC(=O)O", "note": "(stereo not drawn) [DP16]", "values": [{"measurement": "decrease of post-ischemic mortality compared with control", "setting": "[3]", "result": 250, "unit": "%"}, {"measurement": "dose range with dose dependent therapeutic effects", "setting": "[4]; FIG. 4, reduction in fatal seizures", "result": "10^−8 to 10^−5 mg/kg"}, {"measurement": "effect on death and epileptiform manifestations", "setting": "[4]; administered prior to pilocarpine", "result": "prevented death in the animals and decreased epileptiform manifestations"}, {"measurement": "estimated therapeutic index (ET)", "setting": "[4]; pilocarpine 400 mg/kg, rats, 0.5 mg/kg/5×10^−7 mg/kg", "result": "1×10^6"}, {"measurement": "response to metrazol (myoclonic jerks)", "setting": "[5]; 0.1 μg/kg i.p.", "result": "same response to metrazol as control"}, {"measurement": "response to metrazol (myoclonic jerks)", "setting": "[5]; 5 to 300 μg/kg i.p., p<0.001", "result": "significant protective effect"}, {"measurement": "complete restoration of AV synchronism", "setting": "rat hearts; 1.0 μg/l in perfusion buffer after AV block establishment", "result": "11 out of 16"}, {"measurement": "decreased level of AVB and prevented ventricular fibrillation", "setting": "rat hearts; 1.0 μg/l, additional cases of the 16 experiments", "result": 5, "unit": "cases"}, {"measurement": "efficiency in resolving atrio-ventricular blockade and preventing ventricular fibrillation compared to BAPTA and BAPTA-AM", "setting": "rat hearts; FIG. 7", "result": "much better efficiency"}, {"measurement": "full restoration of the sinus rhythm during reperfusion", "setting": "rat hearts; reperfusion period", "result": "11 out of 16"}, {"measurement": "percentage of animals exhibiting abnormal level of SGOT and LDH activity", "setting": "[6]; 0.01 μg/kg i.p.", "result": "substantially decreased"}, {"measurement": "mortality", "setting": "[6]; 0.01 μg/kg i.p. 30 and 180 minutes after ISO, control 7 out of 41", "result": "2 out of 30"}, {"measurement": "pathological displacement of the ST-segment, share of ECG", "setting": "[6]; 24 hours following ISO", "result": 28, "unit": "%"}, {"measurement": "pathological displacement of the ST-segment, share of ECG", "setting": "[6]; 48 hours following ISO", "result": 40, "unit": "%"}, {"measurement": "ECG alterations in the phase of stabilization", "setting": "[7]; 3-14 days after pilocarpine, p<0.01 vs not protected", "result": "prevents the appearance of ECG alterations"}, {"measurement": "normalized electrical activity (ECG) at the acute stage of PSCP", "setting": "[7]; DP16 prior to pilocarpine, 24h after pilocarpine", "result": "5 out of 7"}, {"measurement": "coronary vessel's perfusion resistance (CVPR) regulation", "setting": "[8]", "result": "prevents damage of CVPR regulation"}]}
{"compound": "CC[C@@H]1C(=O)OC[C@@H]1Cc1cncn1C", "note": "[pilocarpine, reference compound]", "values": [{"measurement": "LD100 (fatal general tonic-clonic convulsions)", "setting": "[4]; rats", "result": 400, "unit": "mg/kg"}]}
